Experiments:
murine sarcoma 180 = settings: cited from earlier work
[1] = Degradation of stored BEC extract, solamargine and solasonine levels by HPLC; format: physicochemical; settings: for % degradation estimated: four weeks storage under ambient conditions, estimated from the degradation study
Text: A BEC extract was obtained from Solanum Sodomaeum according to conventional extraction procedures. The degradation of the BEC extract was estimated by measuring the change in solamargine and solasonine levels over time. Although degradation of BEC could also be measured by an increase in sugar levels, in practice HPLC analysis for solamargine and solasonine allowed a more quantative analysis to be conducted and was therefore chosen for this study.

[2] = tested on: human ovarian cancer cells; assay: Effect of washed and unwashed BEC on human ovarian cancer cells; format: cell-based
Experimental: The effect of washed and unwashed BEC or human ovarian cancer cells was compared. The washed and unwashed BEC were prepared as described for Example 8.
Cells (5×10^4) were transferred (200 μl chamber of a microscope slide (Lab Tek Miles Scientific). Controls received 50 μl HIFCS/TCM and experimental chambers 50 μl of solasodine glycosides (BEC) 1.5-3.8 μM/L, washed and unwashed after 7-h preincubation and incubated for a further 17 h and […] preincubation and incubated for a further 3h. Similarly, the cells were treated with the aglycone solasodine 19.4-96.8 μM/L. The cells were fixed and examined by the Papanicolaou method.

[3] = Time 0 years storage of BEC extract

Structure (SMILES) | effect on S180 activity (murine sarcoma 180; similar concentrations of rhamnose in the absence of BEC) | Degradation (%) mean ± S.D. [1, 3] [%] | Degradation (%) mean ± S.D. ([1]; Time 0.5 years) [%] | Degradation (%) mean ± S.D. ([1]; Time 1 year) [%] | Degradation (%) mean ± S.D. ([1]; Time 2 years) [%] | Degradation (%) mean ± S.D. ([1]; Time 3 years) [%] | Degradation (%) mean ± S.D. ([1]; Time 4 years) [%] | Degradation (%) mean ± S.D. ([1]; Time 5 years) [%] | % degradation estimated [1] | % survival ([2]; 3 μg/mL) [%] | % survival ([2]; 6 μg/mL) [%] | % survival ([2]; 9 μg/ml) [%] | % survival ([2]; 12 μg/ml) [%] | % survival ([2]; 15 μg/ml) [%] | % survival ([2]; 18 μg/ml) [%] | % survival ([2]; 24 μg/ml) [%] | effect against tumor cells (murine sarcoma 180; administered at levels at which BEC is effective)
C[C@H](O)[C@H](O)[C@@H](O)[C@@H](O)C=O [rhamnose] | no effect | – | – | – | – | – | – | – | – | – | – | – | – | – | – | – | –
C[C@@H]1CC[C@@]2(NC1)O[C@H]1C[C@H]3[C@@H]4CC=C5C[C@@H](O[C@@H]6O[C@H](CO)[C@H](O)[C@H](O[C@@H]7O[C@H](CO)[C@@H](O)[C@H](O)[C@H]7O)[C@H]6O[C@@H]6O[C@@H](C)[C@H](O)[C@@H](O)[C@H]6O)CC[C@]5(C)[C@H]4CC[C@]3(C)[C@H]1[C@@H]2C [Solasonine, (22R, 25R)-spiro-5-en-3β-yl-α-L-rhamnopyranosyl-(1->2gal)-O-β-D-glucopyranosyl-(1->3gal)-β-D-galactopyranose] | – | 0 | 5 ± 5 | 10 ± 5 | 15 ± 8 | 19 ± 9 | 21 ± 10 | 23 ± 11 | < 5% | – | – | – | – | – | – | – | –
C[C@@H]1CC[C@@]2(NC1)O[C@H]1C[C@H]3[C@@H]4CC=C5C[C@@H](O)CC[C@]5(C)[C@H]4CC[C@]3(C)[C@H]1[C@@H]2C [Solasodine, solasodine] | – | – | – | – | – | – | – | – | – | 100 | 100 | 100 | 100 | 100 | 100 | 100 | ineffective
C[C@@H]1CC[C@@]2(NC1)O[C@H]1C[C@H]3[C@@H]4CC=C5C[C@@H](O[C@@H]6O[C@H](CO)[C@@H](O[C@@H]7O[C@@H](C)[C@H](O)[C@@H](O)[C@H]7O)[C@H](O)[C@H]6O[C@@H]6O[C@@H](C)[C@H](O)[C@@H](O)[C@H]6O)CC[C@]5(C)[C@H]4CC[C@]3(C)[C@H]1[C@@H]2C [Solamargine, (22R,25R)-spiro-5-en-3β-yl-α-L-rhamnopyranosyl-(1->2glu)-O-α-L-rhamnopyranosyl-(1->4glu)-β-D-gluco-pyranose] | – | 0 | 4 ± 4 | 8 ± 5 | 12 ± 7 | 15 ± 8 | 19 ± 10 | 22 ± 10 | less than 4% | – | – | – | – | – | – | – | –

Reference: patent US20040220115A1, “Medicinal compositions and their method of preparation” (priority 1999, published 2004)
